Data on two molecules can be found in US9783590B2 (priority 2003, dated 2017).

The target of one test is T1, T2R16 (Homo sapiens, UniProt Q9NYV7).
T1 sequence (Q9NYV7 1-291): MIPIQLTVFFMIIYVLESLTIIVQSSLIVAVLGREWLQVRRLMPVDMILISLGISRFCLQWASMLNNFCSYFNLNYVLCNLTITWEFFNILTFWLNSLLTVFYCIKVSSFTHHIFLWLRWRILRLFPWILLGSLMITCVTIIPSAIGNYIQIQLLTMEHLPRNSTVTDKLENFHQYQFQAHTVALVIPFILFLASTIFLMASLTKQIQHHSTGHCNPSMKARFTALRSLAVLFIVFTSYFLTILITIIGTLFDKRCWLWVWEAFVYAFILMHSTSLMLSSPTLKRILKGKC
The following applies: in vitro cell based assays, Bufe et al. 2002; cited from earlier work.

For another test, the system named is human subjects. The test can be described thus: PTC phenotype determination (blinded sorting taste threshold test). The class given is in vivo. From the text:
Subjects began tasting a solution of 1 micromolar PTC (solution #14) and proceeded in 2-fold increasing concentration increments (solutions 13, 12, 11 . . . ) until a bitter taste was perceived. Subjects then performed a blinded sorting test containing 3 cups of PTC solution and 3 cups of water. Raw taste threshold was the most dilute solution at which the subject could correctly sort all 6 cups. We also included a quinine threshold measurement according to Blakeslee & Salmon (Proc. Natl. Acad. Sci. USA 21, 84, 1935) to identify and exclude individuals with general deficits in bitter taste (aguesia). For dichotomous assignment of phenotype, we considered individuals unable to taste PTC before solution #6, i.e. at concentrations less than 267 micromolar PTC, to be non-tasters. Although the classic method includes corrections for age and sex, analysis of our raw PTC taste threshold data indicated only a modest sex effect, with females more sensitive than males (p=0.00324, proportion of variance explained=5.1%). No effect of age on PTC scores was observed. As a result, raw PTC threshold scores were used for all analyses.
The Utah C.E.P.H. families were enrolled in conjunction with the Utah Genetic Reference Project under University of Utah IRB approved protocol #6090-96, and consisted of individuals of Northern European ancestry. Subjects in the NIH replication sample were enrolled under NIH/NINDS IRB approved protocol # DC-01-230, and were of European, Asian, African American, and Native American ancestry. Human Diversity Panel DNAs (sub-Saharan African, Asian, and Southwest Native American) and primate DNAs were obtained from the Coriell Cell Repository, Camden, N.J. The Utah sample consists of 27 families comprising 269 individuals; both haplotype and phenotype information was available for 180 of these individuals. The NIH replication sample of consisted of 85 unrelated individuals of known haplotype and phenotype; 51 were European, 5 Pakistani, 23 East Asian, and 6 African-American. One African-American is not considered in the analysis due to a rare AAV/AAI diplotype. H is raw PTC score is 7.

Take `OCc1ccccc1O[C@@H]1O[C@H](CO)[C@@H](O)[C@H](O)[C@H]1O` [salicin]: the “receptor response to tastant” value on T2R16 was “responds”.

Consider `NC(=S)Nc1ccccc1` [PTC, phenylthiocarbamide], for which the “mean PTC score” value with human subjects (AVI homozygotes, NIH sample) stood at 1.86; in the test with human subjects (AVI homozygotes, Utah sample), 4.31; with human subjects (PAV heterozygotes, NIH sample) it was 8.81; with human subjects (PAV heterozygotes, Utah sample), 9.65; with human subjects (PAV homozygotes, NIH sample), 10.00; in the test on human subjects (PAV homozygotes, Utah sample, score = number of most dilute solution correctly sorted (#14 = 1 micromolar, 2-fold steps)), 10.69. In addition, the “raw PTC score” value in the test on human subjects (one subject, AAV/AAI diplotype, NIH sample) came out at 7.
